Drawing on ChEMBL document CHEMBL5126670, “Structure-Activity Relationships for the N-Me- Versus N-H-Amide Modification to Macrocyclic ent-Verticilide Antiarrhythmics” (ACS Med Chem Lett, 2022), this text covers inhibition for four compounds.

Activity calls are given as the source filed them. The rule behind the calls is not given here.

The test deals with Ryanodine receptor 2 (Mus musculus) (UniProt E9Q401). As to the kind of experiment: Inhibition of RyR2 in Casq2 gene knockout mouse cardiomyocytes assessed as reduction in calcium sparks frequency at 25 uM incubated for 15 mins by calcium sparks assay. The test is classed as cell-based. The following applies: Cardiomyocyte.
Sequence of Ryanodine receptor 2 (Mus musculus) (E9Q401 whole entry): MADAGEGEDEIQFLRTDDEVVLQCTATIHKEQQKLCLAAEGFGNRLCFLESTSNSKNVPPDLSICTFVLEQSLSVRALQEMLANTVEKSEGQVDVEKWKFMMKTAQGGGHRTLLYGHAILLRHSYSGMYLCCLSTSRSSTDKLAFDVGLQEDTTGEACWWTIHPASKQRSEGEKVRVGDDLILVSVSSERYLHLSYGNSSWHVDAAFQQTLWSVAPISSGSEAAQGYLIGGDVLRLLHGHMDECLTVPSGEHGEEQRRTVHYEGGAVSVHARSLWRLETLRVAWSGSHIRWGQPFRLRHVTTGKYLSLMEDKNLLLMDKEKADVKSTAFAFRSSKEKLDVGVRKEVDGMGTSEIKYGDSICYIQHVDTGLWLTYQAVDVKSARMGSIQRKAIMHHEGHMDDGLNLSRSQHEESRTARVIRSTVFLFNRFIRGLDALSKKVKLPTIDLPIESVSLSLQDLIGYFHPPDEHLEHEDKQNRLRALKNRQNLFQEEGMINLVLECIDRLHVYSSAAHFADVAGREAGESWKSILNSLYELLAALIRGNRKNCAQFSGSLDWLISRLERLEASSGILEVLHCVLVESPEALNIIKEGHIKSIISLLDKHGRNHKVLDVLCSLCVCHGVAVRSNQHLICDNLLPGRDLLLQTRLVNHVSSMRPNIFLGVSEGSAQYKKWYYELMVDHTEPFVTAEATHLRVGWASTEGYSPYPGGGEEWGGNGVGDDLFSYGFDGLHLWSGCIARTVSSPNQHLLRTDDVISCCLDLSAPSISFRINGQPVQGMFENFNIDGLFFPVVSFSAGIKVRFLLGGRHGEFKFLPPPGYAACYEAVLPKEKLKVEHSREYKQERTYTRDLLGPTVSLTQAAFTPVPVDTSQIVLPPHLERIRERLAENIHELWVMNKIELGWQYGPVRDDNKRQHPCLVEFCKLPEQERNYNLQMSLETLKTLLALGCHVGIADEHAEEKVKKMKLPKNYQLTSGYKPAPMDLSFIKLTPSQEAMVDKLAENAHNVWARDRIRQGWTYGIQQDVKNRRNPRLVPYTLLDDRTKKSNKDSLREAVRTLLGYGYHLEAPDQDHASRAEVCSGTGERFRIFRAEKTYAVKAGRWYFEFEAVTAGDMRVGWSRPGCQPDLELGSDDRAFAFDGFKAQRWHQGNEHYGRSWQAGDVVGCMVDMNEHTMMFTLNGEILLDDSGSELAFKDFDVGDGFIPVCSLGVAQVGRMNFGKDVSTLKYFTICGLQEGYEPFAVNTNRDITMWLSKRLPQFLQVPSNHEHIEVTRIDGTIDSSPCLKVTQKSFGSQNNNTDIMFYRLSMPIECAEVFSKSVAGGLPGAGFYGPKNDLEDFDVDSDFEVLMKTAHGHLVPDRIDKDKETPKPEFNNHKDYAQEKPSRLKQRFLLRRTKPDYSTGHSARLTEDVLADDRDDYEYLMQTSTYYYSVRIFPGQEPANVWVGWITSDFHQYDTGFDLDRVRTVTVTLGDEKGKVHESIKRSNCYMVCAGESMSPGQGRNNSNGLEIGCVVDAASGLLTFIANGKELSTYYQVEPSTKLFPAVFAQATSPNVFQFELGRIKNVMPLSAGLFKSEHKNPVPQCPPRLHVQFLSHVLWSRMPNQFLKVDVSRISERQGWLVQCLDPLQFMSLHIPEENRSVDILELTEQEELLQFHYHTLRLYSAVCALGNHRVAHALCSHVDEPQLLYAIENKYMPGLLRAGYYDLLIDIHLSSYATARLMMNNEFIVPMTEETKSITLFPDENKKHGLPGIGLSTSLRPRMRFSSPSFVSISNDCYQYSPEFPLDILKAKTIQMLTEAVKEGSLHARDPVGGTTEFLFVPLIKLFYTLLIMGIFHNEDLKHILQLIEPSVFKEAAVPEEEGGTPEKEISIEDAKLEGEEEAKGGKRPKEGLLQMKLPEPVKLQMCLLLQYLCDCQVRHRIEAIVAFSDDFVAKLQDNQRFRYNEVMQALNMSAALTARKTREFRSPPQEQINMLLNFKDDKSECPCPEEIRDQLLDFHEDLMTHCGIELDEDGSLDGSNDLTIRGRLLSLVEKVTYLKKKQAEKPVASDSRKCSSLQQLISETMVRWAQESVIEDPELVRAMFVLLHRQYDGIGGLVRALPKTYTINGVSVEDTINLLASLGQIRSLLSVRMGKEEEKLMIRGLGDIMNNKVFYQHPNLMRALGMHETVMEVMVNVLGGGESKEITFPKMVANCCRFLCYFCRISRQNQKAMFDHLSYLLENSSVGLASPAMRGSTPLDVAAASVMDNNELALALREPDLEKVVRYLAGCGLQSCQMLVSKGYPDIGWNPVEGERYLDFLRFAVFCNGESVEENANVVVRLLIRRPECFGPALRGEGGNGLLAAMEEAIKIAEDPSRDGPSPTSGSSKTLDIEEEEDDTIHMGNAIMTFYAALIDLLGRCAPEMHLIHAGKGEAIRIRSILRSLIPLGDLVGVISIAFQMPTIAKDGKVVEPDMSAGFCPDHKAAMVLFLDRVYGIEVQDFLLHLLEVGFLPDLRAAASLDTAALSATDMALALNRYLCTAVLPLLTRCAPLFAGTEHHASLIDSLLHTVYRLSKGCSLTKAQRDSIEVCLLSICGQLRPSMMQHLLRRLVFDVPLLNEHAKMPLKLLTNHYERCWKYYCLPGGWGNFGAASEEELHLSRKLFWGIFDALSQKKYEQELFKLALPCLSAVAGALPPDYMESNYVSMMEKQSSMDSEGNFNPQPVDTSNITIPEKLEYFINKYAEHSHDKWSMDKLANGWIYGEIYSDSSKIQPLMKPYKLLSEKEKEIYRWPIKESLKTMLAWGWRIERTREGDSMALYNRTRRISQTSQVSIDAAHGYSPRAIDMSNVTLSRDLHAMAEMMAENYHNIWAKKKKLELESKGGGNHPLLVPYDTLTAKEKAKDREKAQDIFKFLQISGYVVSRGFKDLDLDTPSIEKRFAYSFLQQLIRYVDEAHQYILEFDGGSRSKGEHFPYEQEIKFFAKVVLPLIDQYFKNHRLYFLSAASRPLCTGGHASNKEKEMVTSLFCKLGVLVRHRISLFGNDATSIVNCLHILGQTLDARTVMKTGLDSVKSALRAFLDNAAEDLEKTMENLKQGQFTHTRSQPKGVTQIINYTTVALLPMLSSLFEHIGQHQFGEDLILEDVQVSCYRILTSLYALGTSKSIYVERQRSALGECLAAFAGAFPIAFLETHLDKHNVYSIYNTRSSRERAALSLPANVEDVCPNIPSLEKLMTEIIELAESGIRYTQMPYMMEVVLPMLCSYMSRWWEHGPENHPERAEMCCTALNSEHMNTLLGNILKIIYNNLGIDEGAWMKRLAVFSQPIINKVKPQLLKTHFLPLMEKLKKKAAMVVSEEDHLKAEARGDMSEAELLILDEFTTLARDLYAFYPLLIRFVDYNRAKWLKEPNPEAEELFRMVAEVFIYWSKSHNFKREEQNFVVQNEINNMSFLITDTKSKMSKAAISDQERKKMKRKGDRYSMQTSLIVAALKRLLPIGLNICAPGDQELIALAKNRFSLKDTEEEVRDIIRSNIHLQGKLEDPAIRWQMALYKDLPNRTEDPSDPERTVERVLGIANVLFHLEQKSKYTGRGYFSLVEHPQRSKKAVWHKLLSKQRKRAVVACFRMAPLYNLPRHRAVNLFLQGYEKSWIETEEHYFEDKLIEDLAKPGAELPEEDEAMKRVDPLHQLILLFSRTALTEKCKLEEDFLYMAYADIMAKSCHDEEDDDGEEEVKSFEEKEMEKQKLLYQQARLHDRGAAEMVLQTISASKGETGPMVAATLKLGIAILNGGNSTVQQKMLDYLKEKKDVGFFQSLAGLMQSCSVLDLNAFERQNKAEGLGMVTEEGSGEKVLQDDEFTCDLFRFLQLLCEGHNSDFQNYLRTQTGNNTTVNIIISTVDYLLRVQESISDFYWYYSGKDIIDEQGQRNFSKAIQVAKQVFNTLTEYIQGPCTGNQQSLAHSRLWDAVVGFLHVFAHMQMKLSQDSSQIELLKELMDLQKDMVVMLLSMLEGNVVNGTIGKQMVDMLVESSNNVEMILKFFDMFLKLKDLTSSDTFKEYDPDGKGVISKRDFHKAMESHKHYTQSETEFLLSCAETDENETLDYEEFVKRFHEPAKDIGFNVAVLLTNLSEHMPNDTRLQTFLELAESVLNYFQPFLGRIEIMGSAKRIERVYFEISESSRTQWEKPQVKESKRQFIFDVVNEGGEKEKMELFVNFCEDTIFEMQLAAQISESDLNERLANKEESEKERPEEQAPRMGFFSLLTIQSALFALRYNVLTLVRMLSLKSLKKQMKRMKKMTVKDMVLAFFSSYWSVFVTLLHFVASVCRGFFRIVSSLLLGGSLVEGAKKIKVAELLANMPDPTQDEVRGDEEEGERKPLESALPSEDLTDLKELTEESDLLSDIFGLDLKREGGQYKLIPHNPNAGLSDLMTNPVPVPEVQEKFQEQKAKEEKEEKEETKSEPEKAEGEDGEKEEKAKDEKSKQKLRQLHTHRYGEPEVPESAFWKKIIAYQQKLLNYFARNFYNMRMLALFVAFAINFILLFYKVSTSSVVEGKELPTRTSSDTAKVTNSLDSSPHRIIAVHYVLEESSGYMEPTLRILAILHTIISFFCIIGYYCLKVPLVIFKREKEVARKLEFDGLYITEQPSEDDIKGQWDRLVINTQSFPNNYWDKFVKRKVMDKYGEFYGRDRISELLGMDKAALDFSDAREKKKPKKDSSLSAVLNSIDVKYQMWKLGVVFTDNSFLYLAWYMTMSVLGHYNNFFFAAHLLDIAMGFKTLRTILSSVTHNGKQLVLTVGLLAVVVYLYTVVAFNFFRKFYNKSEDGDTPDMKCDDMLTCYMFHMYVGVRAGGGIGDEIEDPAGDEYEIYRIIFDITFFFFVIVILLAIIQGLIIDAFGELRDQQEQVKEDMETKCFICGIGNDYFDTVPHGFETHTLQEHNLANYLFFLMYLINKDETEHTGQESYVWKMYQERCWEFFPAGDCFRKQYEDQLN
For `CCCCC[C@@H]1OC(=O)[C@@H](C)N(C)C(=O)[C@H](CCCCC)OC(=O)[C@@H](C)NC(=O)[C@H](CCCCC)OC(=O)[C@@H](C)NC1=O`, the inhibition entry was “Active”.

Take `CCCCC[C@@H]1OC(=O)[C@@H](C)N(C)C(=O)[C@H](CCCCC)OC(=O)[C@@H](C)N(C)C(=O)[C@H](CCCCC)OC(=O)[C@@H](C)N(C)C1=O`: the inhibition entry is “Active”.

Take `CCCCC[C@@H]1OC(=O)[C@@H](C)N(C)C(=O)[C@H](CCCCC)OC(=O)[C@@H](C)N(C)C(=O)[C@H](CCCCC)OC(=O)[C@@H](C)NC1=O`: the inhibition result was “Active”.

In the case of `CCCCC[C@@H]1OC(=O)[C@@H](C)NC(=O)[C@H](CCCCC)OC(=O)[C@@H](C)NC(=O)[C@H](CCCCC)OC(=O)[C@@H](C)NC1=O`, the inhibition result was “Active”.
